Test results reported in patent US20260240792A1, “COMPOSITIONS FOR TREATING 5-HT2 CONDITIONS AND METHODS OF USING THE SAME” (Board of Supervisors of Louisiana State University and …, priority 2022, published 2026).
“And” between values parts separate entries of the source, which are not always exact repeats. Equal values may be shown once. “Also recorded” adds a separate entry of the source.

What was measured:
rabbits [1] = experiment: Topical ocular dosing in rabbits: observation of CNS, systemic, ocular and behavioral effects, ocular tolerability; type: in vivo, rabbit; conditions: for adverse events on repeated dosing / threshold dose for inducing systemic effects and minimal undesirable events: 50 μl per eye; for adverse events on repeated dosing: 2 times on day 1 then 4 times per day for 3 days
Procedure: Apparent Ocular Irritability • b. Induction of Inflammation • c. Reduction of Corneal Barrier Integrity • d. Dry Eye or Excessive Tearing • e. Induction of Neovascularization • f. Induction of Scleral Reddening
Parameters Assessed during 2 hour Observation Window (see, for example, FIG. 1):
Two studies were performed to determine at what dose between 0.01% and 0.1% were behavioral and/or systemic effects observed. 50 μL doses at 0.01%, 0.05%, and 0.075% per eye applied and assessments were made as indicated herein.
The application of most topical eye drops requires repeatedly dosing up to 9 times per day in order to maintain efficacy across the course of waking hours and have efficacious levels available during sleeping hours. The effects of repeated ocular dosing of R-DOI were assessed in a similar manner as described herein, with the exception that doses of 0.01% or 0.05% were applied repeatedly as outlined herein:
Animals from the acute dosing were continued through the repeated dosing study. Animals were dosed at the indicated concentration 2 times on day 1 and then dosed 4 times per day for 3 subsequent days. Doses were administered at 50 μl per eye into both eyes of the animal.
Rabbits were assessed for clinically clear eyes by slit lamp ophthalmic scoring. All eyes of all rabbits were normal.
Following balancing animals were treated with 50 μL of Control ophthalmic BSS/0.5% CMC or 0.01% Compound 1 in ophthalmic BSS/0.5% CMC.
Any behavioral changes were continuously monitored over the next 2.5 hours (FIG. 3).
We can determine if a single dose of the ocular composition of 0.01% R-DOI with 0.5% carboxymethylcellulose in ophthalmic BSS: • 1. Reproduced previous findings that R-DOI had IOP depressing effects. • 2. Produced any readily observable behavioral effects. • 3. Was tolerated by the eye without adverse ocular effects, including absence of: • a. Apparent Ocular Irritability • b. Induction of Inflammation • c. Dry Eye or Excessive Tearing • d. Induction of Scleral Reddening • 4. Reduced IOP • 5. Maintained Reduction in IOP • 6. Increased Tear Film Production
(§1) • Rabbits were assessed for clinically clear eyes by slit lamp ophthalmic scoring. All eyes of all rabbits were normal. • Each eye of each rabbit was then assessed for initial IOP by tonometer. • Each eye of each rabbit was assessed for tear film production by Schirmer's Tear Flo Strips at a 30 second interval of analysis. Tear measures were evaluated by a digital caliper to determine mm of tears collected. • Rabbits were sorted into two groups attempting to balance IOP numbers (one higher, one lower animal per group). • Following animals were treated with 50 μL of Control ophthalmic BSS/0.5% CMC or 0.01% R-DOI HCl in ophthalmic BSS/0.5% CMC. • Any apparent behavioral changes were continuously monitored over the next 2.5 hours. • IOP determinations were made at 30 minutes, 1 hour, 2 hours and 3 hours, 5 hours, 7 hours and 24 hours-eyes were examined closely for any adverse effects during these IOP measures. • 7 hours post treatment when IOP returned to control levels tear film production was assessed (see, for example, FIG. 9).

[2] = Weight changes across 1 week of dosing; type: in vivo, rabbit
[3] = Solubility in ophthalmic eye drop (BSS, 0.5% CMC); type: physicochemical; conditions: 0.1% (5 mg/5 mL) in BSS with 0.5% CMC, pH 7.0
Procedure: Non-Limiting, Exemplary Findings Discussed within: • The NCE Compound 1 was formulated within an ophthalmic eye drop with BSS and 0.5% carboxymethylcellulose (CMC) at percentages of 0.1% (5 mg/5 ml) and lower with a pH of 7.0.
• The R-DOI HCl was formulated within an ophthalmic eye drop with BSS and 0.5% carboxymethylcellulose (CMC) at percentages of 0.1% (5 mg/5 mL) and lower with a pH of 7.0.

rabbits [4] = experiment: Tear film production by Schirmer's Tear Flo Strips in rabbits; type: in vivo, rabbit
Procedure: Each eye of each rabbit was assessed for tear film production by Schirmer's Tear Flo Strips at a 30 second interval of analysis. Tear measures were evaluated by a digital caliper to determine mm of tears collected.
3 days post treatment at the same time initial measures were made, IOP and tear film production were re-assessed to examine if effects were sustained post 1 treatment.
(§2) Effects of Compound 1 on Tear Production: Current IOP lowering glaucoma drugs eventually have effects on tear production resulting in dry eye conditions. Further, there are additional associations between dry eye and glaucoma, with co-incidence of the two conditions quite common. […] Selective 5-HT agonists/antagonists can reverse symptoms of dry eye-a very large ophthalmic market. The effects of Compound 1 on tear film production (see, for example, FIG. 6 panels A-D) were therefore assessed by a Schirmer's Tear Flo strip and measured using a digital micrometer caliper.
as §1
as §2, with “R-DOI” for “Compound 1”, “conditions” for “conditions quite”, “production” for “production (see, for example, FIG. 6 panels A-D)”

[5] = 0.075%, 50 μL per eye, both eyes, single dose
[6] = 0.075%, 50 μL per eye, both eyes, single dose, listed as R-DOI HCl
[7] = 0.1%, 50 μL per eye, both eyes, single dose
[8] = 0.1%, 50 μL per eye, both eyes, single dose, 2 hour observation
[9] = 0.1%, 50 μL per eye, both eyes, single dose, 2 hour observation, listed as R-DOI HCl
[10] = 0.01% (1 dose/day day 1, 2 dose/day day 2, 4 dose/day days 3-5)
[11] = 0.1% day 1, then 0.05% (2 dose/day day 2, 4 dose/day days 3-5)

## COc1cc(C[C@@H](C)N)c(OC)cc1I [R-DOI, (R)-1-(2,5-dimethoxy-4-iodophenyl)-2-aminopropane]
Rabbits [1]; 0.01% or 0.05%, repeated dosing, listed as R-DOI HCl
  ocular tolerability of ophthalmic drops (irritability, dry eye or tearing, corneal damage, inflammation, neovascularization): tolerated with no signs or symptoms of irritability; also recorded: Neither signs of dry eye nor excessive tear production was observed; also recorded: no damage to corneal surfaces, barrier intactness, inflammation, or neovascularization
Rabbits [1]; 0.01%, 50 μL per eye, both eyes, single dose
  adverse events (ocular, systemic, behavioral or otherwise): No observable changes; also recorded: no apparent adverse events
Rabbits [1]; 0.01%, 50 μL per eye, both eyes, single dose, listed as R-DOI HCl
  adverse events (ocular, systemic, behavioral or otherwise): no adverse or abnormal events observed
Rabbits [1]; 0.01%, both eyes
  adverse events on repeated dosing: did not cause any adverse events; also recorded: No observable changes
Rabbits [1]; 0.01%, both eyes, listed as R-DOI HCl
  adverse events on repeated dosing: no adverse or abnormal events observed
Rabbits [1]; 0.01%, acute single dosing
  acute ocular toxicity, irritability or adverse ocular reactions: did not exhibit any acute ocular toxicity, irritability, or adverse ocular reactions
Rabbits [1]; 0.05%, 50 μL per eye, both eyes, single dose
  adverse events (ocular, systemic, behavioral or otherwise): No adverse events; also recorded: No observable changes
Rabbits [1]; 0.05%, 50 μL per eye, both eyes, single dose, listed as R-DOI HCl
  adverse events (ocular, systemic, behavioral or otherwise): no adverse or abnormal events observed
Rabbits [1]; 0.05%, both eyes
  adverse events on repeated dosing: did not cause any adverse events; also recorded: No observable changes
Rabbits [1]; 0.05%, both eyes, listed as R-DOI HCl
  adverse events on repeated dosing: no adverse or abnormal events observed
Rabbits [1]; [5]
  adverse events (ocular, systemic, behavioral or otherwise): No adverse events; also recorded: No CNS, Ocular Behavioral or Systemic Changes
  pupil dilation/contraction (miosis): Slight Miosis can be observed in E10 and E11
Rabbits [1]; [6]
  adverse events (ocular, systemic, behavioral or otherwise): no adverse CNS or systemic events observed
  pupil dilation/contraction (miosis): Slight but transient miosis was evident in 2 animals
Rabbits [1]; 0.075%, single dose, 2 animals
  time for miosis to resolve to normal after initial observation: ≤ 15 min
Rabbits [1]; [7]
  onset of symptoms: 20 min
  time post treatment at which observed effects were cleared: cleared by one hour post administration and 1 hour to 2 hour post: Regained Responsiveness; Breathing Normal; Pupils Normal
Rabbits [1]; [8]
  CNS associated behavioral effects: only slight CNS associated behavioral effects were noted; also recorded: Lethargy; also recorded: Head twitch?
  pupil dilation/contraction (miosis): miosis or contraction of the pupil; also recorded: Miosis obvious (pupil contracted)
  systemic effects (respiration and heart rate): increased respiration and heart rate were noted; also recorded: Increased breathing and Heartrate
Rabbits [1]; [9]
  CNS associated behavioral effects: minimal to no head bobs/twitches observed
  systemic effects (respiration and heart rate): obvious increased respiration and heart rates
Rabbits [1]; 0.1%, 50 μL per eye, both eyes, single dose, listed as R-DOI HCl
  time post treatment at which observed effects were cleared: approximately 1 hour
Rabbits [1]; both eyes
  threshold dose for inducing systemic effects and minimal undesirable events: greater than 0.075%
Rabbits [1]; both eyes, listed as R-DOI HCl
  threshold dose for inducing systemic effects and minimal undesirable events: 0.1%
Rabbits [1]; delivered as a 50 μL drop of 0.1% ophthalmic solution to both eyes
  systemic and behavioral threshold concentration for delivery: ≥ 100 total micrograms per animal
Rabbits [1]; topical eye drop, acute single dosing and repeated dosing trials
  acute ocular toxicity, irritability or adverse ocular reactions: did not exhibit any acute ocular toxicity, irritability or adverse ocular reactions
[2]; [10]
  1 week weight: 3.17 kg and 2.89 kg
  1 week weight change: 0.11 and 0.07
[2]; 0.01% or 0.05% repeated dosing, 1 week
  weight with repeated dosing: no loss of weight with repeated dosing
[2]; [11]
  1 week weight: 2.96 kg and 2.79 kg
  1 week weight change: 0.08 and 0.09
[3]
  Solubility of the compound: good with no remaining precipitates
Rabbits [4]; 0.01% single dose, 7 h post treatment
  average increase in tear film production: 2.27 mm
Rabbits [4]; topical ocular dose
  tear production as measured by Schirmer's test: increased tear production relative to initial and control treatment; also recorded: significant increase in tear production
